These results are taken from PMC2217384 (The Journal of General Physiology, 2003).

Structures are written as SMILES.

The test concerns the target T1, P2X1 receptor (Rattus norvegicus, UniProt P47824).
T1 sequence (P47824 1-399): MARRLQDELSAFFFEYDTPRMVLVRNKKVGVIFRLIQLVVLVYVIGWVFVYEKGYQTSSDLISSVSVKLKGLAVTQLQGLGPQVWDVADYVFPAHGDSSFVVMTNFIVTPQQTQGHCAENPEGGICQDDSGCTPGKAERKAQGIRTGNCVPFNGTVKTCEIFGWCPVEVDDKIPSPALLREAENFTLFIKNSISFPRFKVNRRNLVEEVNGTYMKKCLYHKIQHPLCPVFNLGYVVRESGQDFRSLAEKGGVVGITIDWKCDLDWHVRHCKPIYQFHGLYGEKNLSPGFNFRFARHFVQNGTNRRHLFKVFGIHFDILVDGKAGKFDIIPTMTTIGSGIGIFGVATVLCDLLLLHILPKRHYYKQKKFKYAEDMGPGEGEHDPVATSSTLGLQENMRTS
Nature of the test: two-electrode voltage clamp in Xenopus oocytes. In kind it is cell-based. In general terms: In two-electrode clamp one electrode senses voltage and the other passes current.

Consider `Nc1ncnc2c1ncn2[C@@H]1O[C@H](COP(=O)(O)OP(=O)(O)OP(=O)(O)O)[C@@H](O)[C@H]1O` [ATP], for which the midpoint of the response, the EC50, lay at 700 ± 60 nM.

By EC50 is commonly meant the concentration needed to bring the measured effect to its halfway point. Low readings indicate higher potency in that assay, high ones lower potency in that assay.
